Assay results as given in patent US10196386B2, “Compounds having muscarinic receptor antagonist and beta2 adrenergic receptor agonist activity” (priority 2016, dated 2019).

Legend:
Human M3 receptor = target: T1, Human M3 receptor (Homo sapiens, UniProt P20309); assay: biochemical; type: binding; details: read-out: M3 Range
T1 construct: purchased Perkin Elmer

Human β2 adrenoceptor = target: T2, Human β2 adrenoceptor (Homo sapiens, UniProt P07550); assay: β2 adrenoceptor radioligand binding assay
T2 construct: purchased Perkin Elmer
T2 sequence (P07550 whole entry): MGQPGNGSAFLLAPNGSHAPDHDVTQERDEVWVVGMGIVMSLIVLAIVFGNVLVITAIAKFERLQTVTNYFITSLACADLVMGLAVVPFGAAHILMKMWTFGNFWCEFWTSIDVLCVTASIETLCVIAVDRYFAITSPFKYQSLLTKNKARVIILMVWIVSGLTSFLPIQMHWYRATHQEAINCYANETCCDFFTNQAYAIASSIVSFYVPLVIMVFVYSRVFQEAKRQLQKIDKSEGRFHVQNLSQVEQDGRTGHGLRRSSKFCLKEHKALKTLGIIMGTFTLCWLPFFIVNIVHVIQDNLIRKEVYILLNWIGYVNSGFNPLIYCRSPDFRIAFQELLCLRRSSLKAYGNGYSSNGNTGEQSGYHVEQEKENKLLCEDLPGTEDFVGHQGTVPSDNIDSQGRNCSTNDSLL
Experimental: β2 Adrenoceptor Radioligand Binding Assay
Human β2 adrenoceptor membranes (7.5 ug/well) from Perkin Elmer were incubated with 0.3 nM 125-I Cyanopindolol with or without test compounds, or a saturating concentration of s-propranolol (2 μM) for the determination of non-specific binding. The assay was carried out in 96-well polypropylene plates in a volume of 200 ul. The assay buffer used was 25 mM HEPES, 0.5% BSA (w/v), 1 mM EDTA, 0.02% ascorbic acid (v/v), (pH 7.4). The final assay concentration of DMSO was 0.5% (v/v). The plates were sealed and incubated for 1 h at room temperature on an orbital shaker (slow speed). Membranes were harvested onto 96-well unifilter GF/C filter plates pre-treated with 0.5% polyethyleneimine (v/v), using a filter manifold, washed six times with 200 ul of wash buffer containing 10 mM HEPES and 500 mM NaCl. The plates were dried before addition of 50 μl of microscint-0, sealed then read in a Trilux Microbeta scintillation counter. IC50 values are determined from competition curves using a non-linear curve fitting program. Ki values were calculated from IC50 values by the Cheng and Prusoff equation.

T1 sequence (P20309 whole entry): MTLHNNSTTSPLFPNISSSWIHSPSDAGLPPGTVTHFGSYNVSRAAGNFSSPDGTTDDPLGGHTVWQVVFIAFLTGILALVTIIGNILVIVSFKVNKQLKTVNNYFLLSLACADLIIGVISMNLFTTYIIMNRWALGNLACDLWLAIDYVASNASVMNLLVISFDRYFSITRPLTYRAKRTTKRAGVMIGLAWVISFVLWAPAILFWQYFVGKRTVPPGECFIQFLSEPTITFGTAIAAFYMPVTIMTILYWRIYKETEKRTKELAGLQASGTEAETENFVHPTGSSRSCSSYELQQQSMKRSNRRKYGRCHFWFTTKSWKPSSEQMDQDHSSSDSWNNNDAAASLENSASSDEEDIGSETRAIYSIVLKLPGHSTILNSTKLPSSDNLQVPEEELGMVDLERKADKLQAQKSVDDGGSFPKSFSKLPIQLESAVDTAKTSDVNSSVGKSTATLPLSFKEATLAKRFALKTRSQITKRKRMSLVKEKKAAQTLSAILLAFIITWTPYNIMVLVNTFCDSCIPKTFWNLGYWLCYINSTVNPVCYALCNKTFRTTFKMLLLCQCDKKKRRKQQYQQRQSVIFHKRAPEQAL

In the case of O=C(NCc1ccc(-c2cccc([C@](O)(C(=O)OCC3CCN(Cc4ccccc4)CC3)c3ccccc3)c2)s1)c1cc(F)c(CNC[C@H](O)c2ccc(O)c3[nH]c(=O)ccc23)cc1F [Compound 1U, (1-Benzylpiperidin-4-yl)methyl (S)-2-(3-(5-((2,5-difluoro-4-((((R)-2-hydroxy-2-(8-hydroxy-2-oxo-1,2-dihydroquinolin-5-yl)ethyl)amino)methyl)-benzamido)methyl)thiophen-2-yl)phenyl)-2-hydroxy-2-phenylacetate], the IC50 (Human M3 receptor) is reported as 0.3 to 3 nM and the IC50 (Human β2 adrenoceptor) is reported as < 0.3 nM.

O=C(NCc1ccc(-c2cccc([C@](O)(C(=O)OCC3CCN(Cc4ccccc4)CC3)c3ccccc3)c2)s1)c1ccc(CNC[C@H](O)c2ccc(O)c3[nH]c(=O)ccc23)c(F)c1F [Compound 1V, (1-Benzylpiperidin-4-yl)methyl (S)-2-(3-(5-((2,3-difluoro-4-((((R)-2-hydroxy-2-(8-hydroxy-2-oxo-1,2-dihydroquinolin-5-yl)ethyl)amino)methyl)-benzamido)methyl)thiophen-2-yl)phenyl)-2-hydroxy-2-phenylacetate] was tested, and the IC50 (Human M3 receptor) was 0.3 to 3 nM and the IC50 (Human β2 adrenoceptor) was < 0.3 nM.

O=C(NCc1ccc(-c2cccc([C@](O)(C(=O)OCC3CCN(Cc4ccccc4)CC3)c3ccccc3)c2)s1)c1c(F)cc(CNC[C@H](O)c2ccc(O)c3[nH]c(=O)ccc23)cc1Cl [Compound 1W, (1-Benzylpiperidin-4-yl)methyl (S)-2-(3-(5-((2-chloro-6-fluoro-4-((((R)-2-hydroxy-2-(8-hydroxy-2-oxo-1,2-dihydroquinolin-5-yl)ethyl)amino)methyl)-benzamido)methyl)thiophen-2-yl)phenyl)-2-hydroxy-2-phenylacetate] was tested, and the IC50 (Human M3 receptor) was 0.3 to 3 nM and the IC50 (Human β2 adrenoceptor) was < 0.3 nM.

With COc1cc(CNC[C@H](O)c2ccc(O)c3[nH]c(=O)ccc23)cc(F)c1C(=O)NCc1ccc(-c2cccc([C@](O)(C(=O)OCC3CCN(Cc4ccccc4)CC3)c3ccccc3)c2)s1 [Compound 1X, (1-Benzylpiperidin-4-yl)methyl (S)-2-(3-(5-((2-fluoro-4-((((R)-2-hydroxy-2-(8-hydroxy-2-oxo-1,2-dihydroquinolin-5-yl)ethyl)amino)methyl)-6-methoxybenzamido)methyl)thiophen-2-yl)phenyl)-2-hydroxy-2-phenylacetate] the IC50 (Human M3 receptor) was 0.3 to 3 nM and the IC50 (Human β2 adrenoceptor) was < 0.3 nM.

COc1ccc(CN2CCC(COC(=O)[C@](O)(c3ccccc3)c3cccc(-c4ccc(CNC(=O)c5ccc(CNC[C@H](O)c6ccc(O)c7[nH]c(=O)ccc67)cc5)s4)c3)CC2)cc1 [Compound 2A, (1-(4-Methoxybenzyl)piperidin-4-yl)methyl (S)-2-hydroxy-2-(3-(5-((4-((((R)-2-hydroxy-2-(8-hydroxy-2-oxo-1,2-dihydroquinolin-5-yl)ethyl)amino)-methyl)benzamido)methyl)thiophen-2-yl)phenyl)-2-phenylacetate] was tested, and the IC50 (Human M3 receptor) was 0.3 to 3 nM and the IC50 (Human β2 adrenoceptor) was < 0.3 nM.

In the case of CN1CCC(COC(=O)[C@](O)(c2ccccc2)c2cccc(-c3ccc(CNC(=O)c4ccc(CNC[C@H](O)c5ccc(O)c6[nH]c(=O)ccc56)cc4)s3)c2)CC1 [Compound 2B, (1-Methylpiperidin-4-yl)methyl (S)-2-hydroxy-2-(3-(5-((4-((((R)-2-hydroxy-2-(8-hydroxy-2-oxo-1,2-dihydroquinolin-5-yl)ethyl)amino)methyl)-benzamido)methyl)thiophen-2-yl)phenyl)-2-phenylacetate], the IC50 (Human M3 receptor) is reported as 0.3 to 3 nM and the IC50 (Human β2 adrenoceptor) is reported as < 0.3 nM.

O=C(NCc1ccc(-c2cccc([C@](O)(C(=O)OC[C@@H]3[C@H]4CN(Cc5ccccc5)C[C@@H]34)c3ccccc3)c2)s1)c1ccc(CNC[C@H](O)c2ccc(O)c3[nH]c(=O)ccc23)cc1 [Compound 2D, ((1R,5S,6r)-3-Benzyl-3-azabicyclo[3.1.0]hexan-6-yl)methyl (S)-2-hydroxy-2-(3-(5-((4-((((R)-2-hydroxy-2-(8-hydroxy-2-oxo-1,2-dihydroquinolin-5-yl)ethyl)amino)methyl)benzamido)methyl)thiophen-2-yl)phenyl)-2-phenylacetate] was tested, and the IC50 (Human M3 receptor) was 0.3 to 3 nM and the IC50 (Human β2 adrenoceptor) was 0.3 to 3 nM.

COc1cccc(CN2CCC(COC(=O)[C@](O)(c3ccccc3)c3cccc(-c4ccc(CNC(=O)c5ccc(CNC[C@H](O)c6ccc(O)c7[nH]c(=O)ccc67)cc5)s4)c3)CC2)c1 [Compound 2E, (1-(3-Methoxybenzyl)piperidin-4-yl)methyl (S)-2-hydroxy-2-(3-(5-((4-((((R)-2-hydroxy-2-(8-hydroxy-2-oxo-1,2-dihydroquinolin-5-yl)ethyl)amino)-methyl)benzamido)methyl)thiophen-2-yl)phenyl)-2-phenylacetate] was tested, and the IC50 (Human M3 receptor) was > 3 nM and the IC50 (Human β2 adrenoceptor) was 0.3 to 3 nM.

C[C@@H](OC(=O)[C@](O)(c1ccccc1)c1cccc(-c2ccc(CNC(=O)c3ccc(CNC[C@H](O)c4ccc(O)c5[nH]c(=O)ccc45)cc3)s2)c1)C1CCN(Cc2ccccc2)CC1 [Compound 2G, (R)-1-(1-Benzylpiperidin-4-yl)ethyl (S)-2-hydroxy-2-(3-(5-((4-((((R)-2-hydroxy-2-(8-hydroxy-2-oxo-1,2-dihydroquinolin-5-yl)ethyl)amino)-methyl)benzamido)methyl)thiophen-2-yl)phenyl)-2-phenylacetate] was tested, and the IC50 (Human M3 receptor) was 0.3 to 3 nM and the IC50 (Human β2 adrenoceptor) was < 0.3 nM.

In the case of O=C(NCc1ccc(-c2cccc([C@](O)(C(=O)OC3CCC4(CC3)CCN(Cc3ccccc3)CC4)c3ccccc3)c2)s1)c1ccc(CNC[C@H](O)c2ccc(O)c3[nH]c(=O)ccc23)cc1 [Compound 2H, 3-Benzyl-3-azaspiro[5.5]undecan-9-yl (S)-2-hydroxy-2-(3-(5-((4-((((R)-2-hydroxy-2-(8-hydroxy-2-oxo-1,2-dihydroquinolin-5-yl)ethyl)amino)-methyl)benzamido)methyl)thiophen-2-yl)phenyl)-2-phenylacetate], the IC50 (Human M3 receptor) is reported as > 3 nM and the IC50 (Human β2 adrenoceptor) is reported as < 0.3 nM.

In the case of O=C(c1ccc(CCNC[C@H](O)c2ccc(O)c3[nH]c(=O)ccc23)cc1)N1CC=C(c2cccc([C@](O)(C(=O)OCC3CCN(Cc4ccccc4)CC3)c3ccccc3)c2)CC1 [Compound 3, (1-Benzylpiperidin-4-yl)methyl (S)-2-hydroxy-2-(3-(1-(4-(2-(((R)-2-hydroxy-2-(8-hydroxy-2-oxo-1,2-dihydroquinolin-5-yl)ethyl)amino)ethyl)benzoyl)-1,2,3,6-tetrahydropyridin-4-yl)phenyl)-2-phenylacetate], the IC50 (Human M3 receptor) is reported as < 0.3 nM and the IC50 (Human β2 adrenoceptor) is reported as < 0.3 nM.

Molecule O=C(NCc1ccc(-c2cccc([C@](O)(C(=O)OCC3CCN(Cc4ccccc4)CC3)c3ccccc3)c2)o1)c1ccc(CNC[C@H](O)c2ccc(O)c3[nH]c(=O)ccc23)cc1 [Compound 3A, (1-Benzylpiperidin-4-yl)methyl (S)-2-hydroxy-2-(3-(5-((4-((((R)-2-hydroxy-2-(8-hydroxy-2-oxo-1,2-dihydroquinolin-5-yl)ethyl)amino)methyl)-benzamido)methyl)furan-2-yl)phenyl)-2-phenylacetate] has an IC50 (Human M3 receptor) of 0.3 to 3 nM and an IC50 (Human β2 adrenoceptor) of 0.3 to 3 nM.

In the case of O=C(c1ccc(CNC[C@H](O)c2ccc(O)c3[nH]c(=O)ccc23)cc1)N1CC=C(c2cccc([C@](O)(C(=O)OCC3CCN(Cc4ccccc4)CC3)c3ccccc3)c2)CC1 [Compound 3B, (1-Benzylpiperidin-4-yl)methyl (S)-2-hydroxy-2-(3-(1-(4-((((R)-2-hydroxy-2-(8-hydroxy-2-oxo-1,2-dihydroquinolin-5-yl)ethyl)amino)methyl)benzoyl)-1,2,3,6-tetrahydropyridin-4-yl)phenyl)-2-phenylacetate], the IC50 (Human M3 receptor) is reported as 0.3 to 3 nM and the IC50 (Human β2 adrenoceptor) is reported as < 0.3 nM.

For COc1cc(C(=O)N2CC=C(c3cccc([C@](O)(C(=O)OCC4CCN(Cc5ccccc5)CC4)c4ccccc4)c3)CC2)ccc1CNC[C@H](O)c1ccc(O)c2[nH]c(=O)ccc12 [Compound 3C, (1-Benzylpiperidin-4-yl)methyl (S)-2-hydroxy-2-(3-(1-(4-((((R)-2-hydroxy-2-(8-hydroxy-2-oxo-1,2-dihydroquinolin-5-yl)ethyl)amino)methyl)-3-methoxybenzoyl)-1,2,3,6-tetrahydropyridin-4-yl)phenyl)-2-phenylacetate], the IC50 (Human M3 receptor) was < 0.3 nM and the IC50 (Human β2 adrenoceptor) was < 0.3 nM.

In the case of COc1c(CNC[C@H](O)c2ccc(O)c3[nH]c(=O)ccc23)ccc(C(=O)N2CC=C(c3cccc([C@](O)(C(=O)OCC4CCN(Cc5ccccc5)CC4)c4ccccc4)c3)CC2)c1F [Compound 3D, (1-Benzylpiperidin-4-yl)methyl (S)-2-(3-(1-(2-fluoro-4-((((R)-2-hydroxy-2-(8-hydroxy-2-oxo-1,2-dihydroquinolin-5-yl)ethyl)amino)methyl)-3-methoxybenzoyl)-1,2,3,6-tetrahydropyridin-4-yl)phenyl)-2-hydroxy-2-phenylacetate], the IC50 (Human M3 receptor) is reported as 0.3 to 3 nM and the IC50 (Human β2 adrenoceptor) is reported as 0.3 to 3 nM.

For COc1cc(CNC[C@H](O)c2ccc(O)c3[nH]c(=O)ccc23)ccc1C(=O)N1CC=C(c2cccc([C@](O)(C(=O)OCC3CCN(Cc4ccccc4)CC3)c3ccccc3)c2)CC1 [Compound 3E, (1-Benzylpiperidin-4-yl)methyl (S)-2-hydroxy-2-(3-(1-(4-((((R)-2-hydroxy-2-(8-hydroxy-2-oxo-1,2-dihydroquinolin-5-yl)ethyl)amino)methyl)-2-methoxybenzoyl)-1,2,3,6-tetrahydropyridin-4-yl)phenyl)-2-phenylacetate], the IC50 (Human M3 receptor) was < 0.3 nM and the IC50 (Human β2 adrenoceptor) was < 0.3 nM.
